In patent US6596863B2, “Medical composition containing nitroetheneamine Derivative or salt there of as active constituent” (Ishihara Sangyo Kaisha, Ltd., priority 1998, dated 2003):
pIC50: −log10 of the molar value. Like-named read-outs stand apart in the source and are kept apart here.

Tests used:
[1] = target: T1, human MMP-9 (gelatinase B) (Homo sapiens, UniProt P14780); test: Inhibition activity against human MMP-9 (gelatinase B), fluorescent peptide substrate; assay type: biochemical
T1 construct: endogenous in cells; host or cells: HT1080 human fibrosarcoma cells (ATCC CCL-121), PMA-stimulated; enzyme purified from the culture supernatant
T1 sequence (P14780 107-707 limits assumed): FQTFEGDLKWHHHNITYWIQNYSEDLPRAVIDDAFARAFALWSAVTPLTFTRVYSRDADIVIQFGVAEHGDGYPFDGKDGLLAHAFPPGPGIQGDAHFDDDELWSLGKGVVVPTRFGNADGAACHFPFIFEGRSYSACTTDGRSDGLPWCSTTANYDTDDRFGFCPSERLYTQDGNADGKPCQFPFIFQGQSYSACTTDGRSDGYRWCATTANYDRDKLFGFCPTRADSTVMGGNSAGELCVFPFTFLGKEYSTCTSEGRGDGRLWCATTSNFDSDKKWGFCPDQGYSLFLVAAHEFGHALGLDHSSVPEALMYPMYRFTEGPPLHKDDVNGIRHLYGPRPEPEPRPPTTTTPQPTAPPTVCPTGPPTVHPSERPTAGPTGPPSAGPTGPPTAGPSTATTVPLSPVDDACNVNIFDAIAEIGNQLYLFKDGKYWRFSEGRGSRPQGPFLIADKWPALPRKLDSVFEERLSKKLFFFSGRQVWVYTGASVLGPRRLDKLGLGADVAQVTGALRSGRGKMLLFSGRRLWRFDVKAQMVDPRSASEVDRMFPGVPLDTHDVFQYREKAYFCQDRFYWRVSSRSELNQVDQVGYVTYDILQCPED
Method in brief: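 MMP-9 purified from PMA-stimulated (10 ng/ml) HT1080 supernatant, or commercial enzyme (0.0125-0.025 unit/ml or 0.2 μg/ml final), incubated with compound and 10 μM final Mca-Pro-Leu-Gly-Leu-Dpa-Ala-Arg-NH2 fluorescent substrate at 37 °C for 3 h in the dark. Precursor enzyme activated with APMA.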

[2] = compounds of the formula (I), 1st measurement, read-out: MMP-9 inhibition activities IC50, 1st
[3] = compounds of the formula (I), average of 1st and 2nd (or single measurement), read-out: MMP-9 inhibition activities IC50, Average
[4] = compounds of the formula (I), 2nd measurement, read-out: MMP-9 inhibition activities IC50, 2nd
[5] = intermediates, compounds of the formula (IV), 1st measurement, read-out: MMP-9 inhibition activities IC50, 1st
[6] = intermediates, compounds of the formula (IV), 2nd measurement, read-out: MMP-9 inhibition activities IC50, 2nd
[7] = intermediates, compounds of the formula (IV), average of 1st and 2nd (or single measurement), read-out: MMP-9 inhibition activities IC50, Average

Structure (SMILES)	pIC50 [1, 2]	pIC50 [1, 3]	melting point	pIC50 [1, 4]	pIC50 [1, 5]	pIC50 [1, 6]	pIC50 [1, 7]
CNC(=C[N+](=O)[O-])NNc1cc(C(F)(F)F)cc(OCC(F)(F)F)n1 [compound 181]	4.94	4.94	180 °C (dec.)	–	–	–	–
CNC(=C[N+](=O)[O-])NNc1cc(C(F)(F)F)cc(OCCOCCOC)n1 [compound 194]	5.31	5.17	128 °C	5.08	–	–	–
NNC(=C[N+](=O)[O-])NN1CCOCC1 [compound 67]	4.24	4.30	187 °C (dec.)	4.37	–	–	–
CCNC(=C[N+](=O)[O-])NNc1cc(C(F)(F)F)cc(Cl)n1 [compound 102]	4.74	4.79	206 °C (dec.)	4.85	–	–	–
NNC(=C[N+](=O)[O-])NS(=O)(=O)c1ccccc1 [compound 156]	4.42	4.40	210 °C (dec.)	4.38	–	–	–
CNC(=C[N+](=O)[O-])NNc1cc(C(F)(F)F)cc(C(F)(F)F)n1 [compound 44]	4.71	4.63	192 to 193 °C (dec.)	4.57	–	–	–
CNC(=C[N+](=O)[O-])NNc1ccnc2cc(C(F)(F)F)ccc12 [compound 147]	4.46	4.43	235 °C (dec.)	4.40	–	–	–
CC(=C(NNc1cc(C(F)(F)F)cc(Cl)n1)NS(C)(=O)=O)[N+](=O)[O-] [compound 165]	5.49	5.49	30 to 33 °C	–	–	–	–
NNC(=C[N+](=O)[O-])NCc1cccc(C(F)(F)F)c1 [compound 77]	4.38	4.42	155 °C	4.45	–	–	–
CNC(=C[N+](=O)[O-])NNc1c([N+](=O)[O-])c(C)nn1C [Compound No. 30]	4.95	4.84	164 °C (dec.)	4.76	–	–	–
CNC(=C[N+](=O)[O-])NNS(=O)(=O)c1cccc2ccccc12 [compound 150]	4.83	4.88	168 °C (dec.)	4.94	–	–	–
CNC(=C[N+](=O)[O-])NNc1cccc(C(F)(F)F)n1 [compound 168]	5.15	5.14	197 °C (dec.)	5.14	–	–	–
CNC(=C[N+](=O)[O-])NNc1nc(-c2ccccc2)nc2ccccc12 [compound 148]	4.47	4.56	272 °C (dec.)	4.66	–	–	–
CNC(=C[N+](=O)[O-])NN(C)c1ccc(C(F)(F)F)cn1 [compound 36]	4.71	4.66	153 to 154 °C	4.61	–	–	–
CNC(=C[N+](=O)[O-])NNc1cc(C(F)(F)F)cc(OCC2CCCO2)n1 (centres unmarked) [compound 129]	4.93	5.03	97 to 99 °C	5.17	–	–	–
NNC(=C[N+](=O)[O-])Nc1ccccc1 [compound 87]	4.69	4.64	153 °C (dec.)	4.60	–	–	–
CCCCOc1cc(C(F)(F)F)cc(NNC(=C[N+](=O)[O-])NC)n1 [compound 177]	4.97	5.08	169 °C (dec.)	5.21	–	–	–
CNC(=C[N+](=O)[O-])NN=Cc1ccc([N+](=O)[O-])cc1 [compound 138]	4.65	4.72	232 °C (dec.)	4.80	–	–	–
CNC(=C[N+](=O)[O-])NNc1cc(C(F)(F)F)cc(OCCN2CCOCC2)n1 [compound 188]	5.21	5.21	166 °C (dec.)	–	–	–	–

Structure (SMILES)	pIC50 [1, 2]	pIC50 [1, 3]	melting point	pIC50 [1, 4]	pIC50 [1, 5]	pIC50 [1, 6]	pIC50 [1, 7]
CNC(=C[N+](=O)[O-])NNc1cc(C(F)(F)F)cc(C)n1 [compound 131]	5.70	5.60	165 °C (dec.)	5.52	–	–	–
CNC(=C[N+](=O)[O-])NN=C(C)c1cccs1 [compound 32]	4.57	4.60	165 °C (dec.)	4.62	–	–	–
CNC(=C[N+](=O)[O-])NN=Cc1ccc2c(c1)OCO2 [compound 140]	4.65	4.65	180 °C (dec.)	4.66	–	–	–
CSC(=C[N+](=O)[O-])Nc1ccc(F)cc1 [Intermediate 21]	–	–	156 °C	–	4.50	4.26	4.37
NNC(=C[N+](=O)[O-])Nc1cccnc1 [compound 50]	4.59	4.61	175 °C (dec.)	4.64	–	–	–
CNC(=C[N+](=O)[O-])NNc1ccc(C(F)(F)F)cn1 [Compound No. 19]	5.00	4.93	207 °C (dec.)	4.88	–	–	–
CNC(=C[N+](=O)[O-])NNc1cc(OCCOC)cc(C(F)(F)F)c1 [compound 182]	5.15	5.19	138 °C	5.25	–	–	–
O=[N+]([O-])C=C(NNc1cc(C(F)(F)F)cc(Cl)n1)NS(=O)(=O)c1ccc(-c2ccccc2)cc1 [compound 162]	5.20	5.20	171 to 174 °C	–	–	–	–
COc1ccc(NC(=C[N+](=O)[O-])NN)cc1 [compound 49]	4.81	4.77	195 °C (dec.)	4.74	–	–	–
CSC(=C[N+](=O)[O-])NS(=O)(=O)c1ccc2ccccc2c1 [Intermediate 61]	–	–	205 °C (dec.)	–	5.09	–	5.09
NNC(=C[N+](=O)[O-])Nc1ccc(F)cc1 [compound 53]	4.65	4.59	183.5 °C (dec.)	4.53	–	–	–
CNC(=C[N+](=O)[O-])NNc1cc(C(F)(F)F)cc(OCCCc2cccnc2)n1 [compound 119]	4.55	4.59	149 °C (dec.)	4.63	–	–	–
CNC(=C[N+](=O)[O-])NNc1cc(C(F)(F)F)cc(Oc2ccccc2)n1 [compound 126]	4.53	4.59	141 °C (dec.)	4.66	–	–	–
CNC(=C[N+](=O)[O-])NNc1cc(C(F)(F)F)cc(OCCOC(C)C)n1 [compound 196]	4.95	4.95	167 °C (dec.)	–	–	–	–
O=[N+]([O-])C=C(NCC1CCCO1)NNc1cc(C(F)(F)F)cc(Cl)n1 (centres unmarked) [compound 169]	5.22	5.11	164 °C (dec.)	5.02	–	–	–
CNC(=C[N+](=O)[O-])NNc1ccc(OC)cc1 [compound 17]	4.36	4.44	168 °C (dec.)	4.54	–	–	–
CCOc1ccc(NC(=C[N+](=O)[O-])NN)cc1 [compound 70]	4.38	4.30	198 °C (dec.)	4.24	–	–	–
NNC(=C[N+](=O)[O-])Nc1ccc2cn[nH]c2c1 [compound 152]	4.53	4.64	209 to 213 °C (dec.)	4.79	–	–	–
CSC(=C[N+](=O)[O-])Nc1c(C)nn(C)c1C [Intermediate 54]	–	–	184 to 188 °C	–	4.41	4.47	4.44
